Assay results from patent US20240335644A1, “TREATMENT OF A DISEASE OF THE GASTROINTESTINAL TRACT WITH AN IMMUNE MODULATORY AGENT RELEASED USING AN INGESTIBLE DEVICE” (BIORA THERAPEUTICS, INC., priority 2017, published 2024).

Assays:
[1] = Tissue, plasma, rectal and GI content pharmacokinetics of tacrolimus, oral vs intra-cecal ingestible device (Example 10); parameters: species or system Yorkshire-Cross farm swine; conditions: in vivo
Experimental: (§1) No further randomization procedure was employed.
Animals in Group 1 received an ingestible device containing 0.8 mL of vehicle solution (8000 alcohol, 2000 HCO-60). Animals in Group 2 received orally […] liquid formulation of tacrolimus at 4 mg/0.8 mL per animal (Prograf: 5 mg/mL). Animals in Group 3 received intra-cecally an ingestible device containing tacrolimus at 1 mg in 0.8 mL per ingestible device. Animals in Group 4 received intra-cecally an ingestible device containing tacrolimus at 2 mg in 0.8 mL per ingestible device. Animals in Group 5 received intra-cecally an ingestible device containing tacrolimus at 4 mg in 0.8 mL per ingestible device. To control for potential confounding effects of the surgery, all groups fast on Day −11 at least 24 hr before being subjected to anesthesia followed by surgical placements of a cecal port by a veterinary surgeon at Day −10. All animals were fasted for at least 12 hr prior to dosing on Day 1. Animals were dosed via either intra-cecal dosing (IC) or oral dosing (PO) at Day 1 (between 6-8 p.m.). All animals resumed feeding at approximately 4 hours after dose (11-12 p.m. after dosing).
Animals in Group 1 (Vehicle Control) were administered a single intra-cecal ingestible device containing 0.8 mL Vehicle solution (80% alcohol, 20% castor oil (HCO-60) on Day 1. On Day −10 the animals were anesthetized, and a veterinary surgeon surgically placed an intra-cecal port in each animal. On Day 1, each animal was placed into a sling then a single intra-cecal ingestible device containing 0.8 mL vehicle solution (80% alcohol, 20% castor oil (HCO-60)) is introduced by the veterinary surgeon into the cecum via the cecal port in each animal. Following ingestible device placement, the animals were removed from the slings and placed back into their pens with water. All animals resumed feeding at approximately 4 hours after dose. […] A total of 60 samples were collected.
Approximately 200-400 mg of rectal content were collected, if available, with a fecal swab (Copan Diagnostics Nylon Flocked Dry Swabs, 502CS01). The fecal swab was pre-weighed and weighed after collection in the collection tube (Sterile Tube and Cap No Media, PFPM913S), and the sample weight was recorded. […]
For tissue necropsy, small intestine fluid and cecal fluid were collected separately from all the animals into two separate square plastic bottles, and stored at −20° C. The length and diameter of the cecum and the colon was measured from one animal in each group and recorded for reference. […] All samples were weighed, and the tissue sample weights were recorded. […] Around 3 grams of the total punched sample were collected into a pre-weighed 15-mL conical tube, and the tissue weight was recorded. […]

[2] = Pharmacokinetic study of oral vs intra-cecal tacrolimus: blood, rectal content, GI tissue and luminal content, tissue/plasma ratios (Example 13); parameters: species or system Yorkshire-Cross farm swine; conditions: female, Yorkshire-Cross, swine, in vivo, 0.09 mg/kg
Description: as §1

luminal content (spiral, transverse, and distal colon) concentrations [1]: Significantly higher
mean concentration of tacrolimus in the cecum tissue and the proximate colon tissue [1]: higher
tissue (spiral and transverse colon) concentrations [1]: Significantly higher
level of tacrolimus in tissue ([1]; po): No measurable level
Ratio Tissue(mean) (ng/g)/AUG(0-12 hr) (ng · hr/ml) ([2]; 12 h): 0
Ratio Tissue(mean) (ng/g)/Trough(12 hr)(ng/ml) ([2]; 12 h): 0
Trough (12 hr) ([2]; 12 h): 0.568 ng/mL
concentration at 12 h ([2]; Trough (12 hr)): 0.568 ± 0.291 ng/mL
Structure (SMILES): C=CC[C@@H]1/C=C(\C)C[C@H](C)C[C@H](OC)[C@H]2O[C@@](O)(C(=O)C(=O)N3CCCC[C@H]3C(=O)O[C@H](/C(C)=C/[C@@H]3CC[C@@H](O)[C@H](OC)C3)[C@H](C)[C@@H](O)CC1=O)[C@H](C)C[C@@H]2OC [tacrolimus]
